Earlier results on two compounds are cited in patent US20110034521A1, “COMPOUNDS AND METHODS FOR TREATING ZINC MATRIX METALLOPROTEASE DEPENDENT DISEASES” (priority 2007, published 2011).

The conditions of data set [1]: Sparano et al. 2004.
For data set [2] the following is noted: Wojtowwicz-Praga et al. 1997.

Regarding `CNC(=O)[C@@H](NC(=O)[C@H](CC(C)C)[C@H](O)C(=O)NO)C(C)(C)C` [Marimastat], the toxicity result in data set [1] is on record as “musculoskeletal toxicity”. As to `CNC(=O)[C@H](Cc1ccccc1)NC(=O)[C@H](CC(C)C)[C@H](CSc1cccs1)C(=O)NO` [Batismastat], in data set [2], the water solubility result is on record as “poor water solubility”.
